From ChEMBL document CHEMBL1201862, “PubChem BioAssay data set” (2004) come the findings set out here.

Molecules are shown by their SMILES. The source made the active and inactive calls.

Assay [1] concerns the target T1, Heat shock factor protein 1 (Mus musculus, UniProt P38532).
T1 sequence (P38532 whole entry): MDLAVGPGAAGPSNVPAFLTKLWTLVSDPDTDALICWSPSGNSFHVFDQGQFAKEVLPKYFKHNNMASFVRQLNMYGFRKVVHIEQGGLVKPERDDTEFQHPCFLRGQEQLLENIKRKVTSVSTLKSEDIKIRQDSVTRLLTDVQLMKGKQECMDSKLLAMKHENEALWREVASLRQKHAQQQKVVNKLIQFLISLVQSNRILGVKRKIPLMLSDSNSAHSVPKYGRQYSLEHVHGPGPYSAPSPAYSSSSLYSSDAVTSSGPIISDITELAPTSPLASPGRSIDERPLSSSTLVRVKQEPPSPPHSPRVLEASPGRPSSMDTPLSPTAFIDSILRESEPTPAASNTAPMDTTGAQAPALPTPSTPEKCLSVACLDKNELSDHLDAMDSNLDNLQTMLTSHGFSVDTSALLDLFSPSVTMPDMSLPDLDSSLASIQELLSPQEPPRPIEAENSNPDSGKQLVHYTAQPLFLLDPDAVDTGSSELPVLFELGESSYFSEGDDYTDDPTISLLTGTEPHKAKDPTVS
In words: HSF1 potentiators in luciferase reporter cells, confirmation, cell-based, NIH3T3, luminescence, dose retest (AID 435004).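 Note: stress induced by proteasome inhibitor MG132 added 30 min after compound; luciferase reporter driven by HSF1 response element in NIH3T3 cells; actives raise luminescence as potentiators of the MG132 stress response.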 The assay is classed as functional. Background: A reporter such as luciferase makes a cellular process visible.

The nature of assay [2]: C. albicans growth with fluconazole, confirmation, fluorescence, retest (AID 2467). The assay is classed as functional, cell-based.
Another assay relates to HeLa. In words: Cytotoxicity counterscreen assay for transcriptional activators of heat shock protein 70 (Hsp70). [Related pubchem assays: 1203, 1252 ]. The note with it: Homo sapiens. The assay is classed as functional. For orientation: Counterscreens check selectivity or assay interference.
For assay [3], the target named is Serine/threonine-protein phosphatase (Candida dubliniensis (strain CD36 / CBS 7987 / NCPF 3949 / NRRLY-17841) (Yeast), UniProt B9W6M3). In words: calcineurin pathway inhibitors in yeast reporter, dose response, S. cerevisiae, CDRE-lacZ, luminescence, secondary (AID 2388).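 Note: yeast reporter cells carrying a calcineurin-responsive lacZ construct stimulated with calcium chloride; luminescent beta-galactosidase reporter signal in whole cells rather than isolated phosphatase activity; potency for inhibition where a drop in reporter signal means calcineurin blockade.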 The assay is classed as functional, cell-based.
Chain of Serine/threonine-protein phosphatase (B9W6M3 whole entry): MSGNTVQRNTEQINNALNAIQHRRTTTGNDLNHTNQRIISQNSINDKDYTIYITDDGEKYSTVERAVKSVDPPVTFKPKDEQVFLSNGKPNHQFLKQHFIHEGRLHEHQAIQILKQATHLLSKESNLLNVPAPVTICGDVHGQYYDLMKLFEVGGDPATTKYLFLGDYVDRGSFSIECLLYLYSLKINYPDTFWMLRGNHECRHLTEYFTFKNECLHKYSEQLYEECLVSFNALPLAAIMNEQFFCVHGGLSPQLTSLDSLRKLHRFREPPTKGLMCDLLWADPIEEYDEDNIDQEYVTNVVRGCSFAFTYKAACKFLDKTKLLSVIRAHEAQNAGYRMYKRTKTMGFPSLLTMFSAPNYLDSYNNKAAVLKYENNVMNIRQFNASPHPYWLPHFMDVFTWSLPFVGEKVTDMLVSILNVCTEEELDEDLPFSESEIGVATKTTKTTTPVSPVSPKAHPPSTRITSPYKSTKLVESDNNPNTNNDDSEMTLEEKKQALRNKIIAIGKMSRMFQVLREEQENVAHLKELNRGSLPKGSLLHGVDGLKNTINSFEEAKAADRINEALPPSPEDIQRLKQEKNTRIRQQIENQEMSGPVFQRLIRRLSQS
Assay [4] is described as follows: cytotoxicity in KRAS-transformed pancreatic duct cells, primary screen, cell-based, fluorescence, HTS (AID 431). The assay is classed as functional. The note with it: Homo sapiens.
Assay [5] concerns the target Induced myeloid leukemia cell differentiation protein Mcl-1 (Homo sapiens, UniProt Q07820). The assay is classed as functional.
Assay [6] can be described thus: NIH-3T3 fibroblast cytotoxicity, dose response, cytotoxicity control, cell-based, fluorescence, Alamar Blue, secondary assay (AID 2327).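 Note: NIH-3T3 mouse fibroblasts cultured with fluconazole at 8 µg/mL.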 The assay is classed as functional.
Assay [7] in a line: cytotoxicity in HPDE-C7 cells, cell-based, fluorescence, HTS (AID 430). The assay is classed as functional. The note with it: Homo sapiens.
For assay [8], the target named is ATP-dependent molecular chaperone HSP82 (Candida albicans (strain WO-1) (Yeast), UniProt C4YTQ8). In words: loss of DOC-induced GRE-beta-galactosidase reporter signal, dose response, Hsp90 inhibitor project, S. cerevisiae, luminescence (AID 2400).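 Note: beta-galactosidase luminescence from glucocorticoid response element reporter as proxy for Hsp90 function; inhibitor potency where signal loss means Hsp90 inhibition.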 The assay is classed as functional, cell-based.
Chain of ATP-dependent molecular chaperone HSP82 (C4YTQ8 whole entry): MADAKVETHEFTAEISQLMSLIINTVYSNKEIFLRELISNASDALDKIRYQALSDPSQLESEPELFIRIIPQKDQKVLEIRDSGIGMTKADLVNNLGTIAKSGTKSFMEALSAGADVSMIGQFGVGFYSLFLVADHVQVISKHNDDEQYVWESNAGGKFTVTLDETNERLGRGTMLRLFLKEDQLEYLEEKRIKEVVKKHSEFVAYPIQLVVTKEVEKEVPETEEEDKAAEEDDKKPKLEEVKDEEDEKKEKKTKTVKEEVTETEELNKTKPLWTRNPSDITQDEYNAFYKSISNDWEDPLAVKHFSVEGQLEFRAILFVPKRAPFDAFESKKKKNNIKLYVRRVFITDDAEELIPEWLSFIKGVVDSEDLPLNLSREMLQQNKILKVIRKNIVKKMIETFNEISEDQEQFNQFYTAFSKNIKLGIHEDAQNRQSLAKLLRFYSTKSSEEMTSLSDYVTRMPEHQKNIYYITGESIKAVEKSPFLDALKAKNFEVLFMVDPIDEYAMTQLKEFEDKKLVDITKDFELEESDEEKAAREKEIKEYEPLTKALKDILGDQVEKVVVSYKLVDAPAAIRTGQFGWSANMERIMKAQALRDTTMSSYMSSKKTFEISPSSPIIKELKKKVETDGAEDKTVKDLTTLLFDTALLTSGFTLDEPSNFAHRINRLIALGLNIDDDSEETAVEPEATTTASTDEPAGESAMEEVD
The target of assay [9] is G2/mitotic-specific cyclin-B1 (Homo sapiens, UniProt P14635). In words: Counterscreen assay for inhibitors of Wee1 degradation: dose response cell-based assay to identify inhibitors of cyclin B degradation. [Related pubchem assays: 1410, 1321 ]. The assay is classed as functional.
Chain of G2/mitotic-specific cyclin-B1 (P14635 whole entry): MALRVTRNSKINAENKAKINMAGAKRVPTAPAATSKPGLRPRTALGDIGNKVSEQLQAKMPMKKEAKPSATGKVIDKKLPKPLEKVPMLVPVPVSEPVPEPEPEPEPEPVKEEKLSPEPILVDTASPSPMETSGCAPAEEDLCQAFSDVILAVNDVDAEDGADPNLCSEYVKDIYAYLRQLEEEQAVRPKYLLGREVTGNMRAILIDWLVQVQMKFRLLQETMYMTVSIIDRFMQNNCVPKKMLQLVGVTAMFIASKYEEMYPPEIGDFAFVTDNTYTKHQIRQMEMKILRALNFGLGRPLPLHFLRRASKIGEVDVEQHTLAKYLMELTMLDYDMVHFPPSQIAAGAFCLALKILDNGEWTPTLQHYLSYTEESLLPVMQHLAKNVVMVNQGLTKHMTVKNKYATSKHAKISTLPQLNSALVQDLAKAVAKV
Assay [10] concerns the target G-protein coupled receptor 55 (Homo sapiens, UniProt Q9Y2T6). Briefly: GPR55 antagonists blocking LPI-driven arrestin recruitment, primary screen, imaging, U2OS, beta-arrestin-GFP, LPI agonist (AID 2013).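 Note: antagonist potency measured as reduced agonist-driven arrestin aggregation.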 The assay is classed as functional. (Arrestin recruitment assays detect the binding of arrestin to an activated receptor.)
For another assay, the target named is Wee1-like protein kinase (Homo sapiens, UniProt P30291). Briefly: Dose Response Cell-based Assay for Inhibitors of Wee1 Degradation. [Related pubchem assays: 1410, 1321 ]. The assay is classed as functional.
Chain of Wee1-like protein kinase (P30291 whole entry, the tested form may be a part): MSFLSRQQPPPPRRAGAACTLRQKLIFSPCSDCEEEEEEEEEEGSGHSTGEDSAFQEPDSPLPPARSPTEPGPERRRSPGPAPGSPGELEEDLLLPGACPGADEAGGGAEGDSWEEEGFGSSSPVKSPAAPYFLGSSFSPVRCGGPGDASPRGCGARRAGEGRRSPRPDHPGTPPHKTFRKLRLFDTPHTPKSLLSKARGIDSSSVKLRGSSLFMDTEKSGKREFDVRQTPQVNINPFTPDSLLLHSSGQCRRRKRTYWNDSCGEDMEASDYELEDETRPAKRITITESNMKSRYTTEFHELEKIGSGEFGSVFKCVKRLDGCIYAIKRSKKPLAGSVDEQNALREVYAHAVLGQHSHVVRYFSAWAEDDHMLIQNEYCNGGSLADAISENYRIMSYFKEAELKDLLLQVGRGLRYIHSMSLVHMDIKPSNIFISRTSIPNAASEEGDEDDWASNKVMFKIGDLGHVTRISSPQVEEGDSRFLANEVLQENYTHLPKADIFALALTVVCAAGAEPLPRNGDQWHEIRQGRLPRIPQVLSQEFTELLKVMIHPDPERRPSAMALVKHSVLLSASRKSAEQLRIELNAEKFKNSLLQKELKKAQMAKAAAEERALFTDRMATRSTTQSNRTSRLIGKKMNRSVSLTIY
Assay [11] in a line: inhibitors of HIV Env-driven cell fusion, dose response, cherry-pick (AID 652057). The assay is classed as functional, cell-based.
The subject of another assay is HT-1080. In words: cytotoxicity in HT1080 fibrosarcoma cells, cell-based, fluorescence readout (AID 620). The assay is classed as functional. The note with it: Homo sapiens.
A short description of assay [12]: ZM109 Env clade C HIV-1 fusion inhibitors, dose response, HeLa effector, CEM target cells, luciferase, cherry-pick (AID 652058). The assay is classed as functional, cell-based.
The nature of assay [13]: inhibitors of clade B AD8 Env fusion, dose response, cell-based, cherry-pick (AID 652062).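 Note: luciferase signal from cell-cell fusion driven by HIV-1 clade B AD8 Env; potency is for inhibitors of fusion seen as a drop in luminescence.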 The assay is classed as functional.
The target in assay [14] is Luciferin 4-monooxygenase (Photinus pyralis, UniProt P08659). Briefly: Counter Screen for Luciferase-based Assay Positives. [Related pubchem assays: 620, 618, 411 ].
Chain of Luciferin 4-monooxygenase (P08659 whole entry, the tested form may be a part): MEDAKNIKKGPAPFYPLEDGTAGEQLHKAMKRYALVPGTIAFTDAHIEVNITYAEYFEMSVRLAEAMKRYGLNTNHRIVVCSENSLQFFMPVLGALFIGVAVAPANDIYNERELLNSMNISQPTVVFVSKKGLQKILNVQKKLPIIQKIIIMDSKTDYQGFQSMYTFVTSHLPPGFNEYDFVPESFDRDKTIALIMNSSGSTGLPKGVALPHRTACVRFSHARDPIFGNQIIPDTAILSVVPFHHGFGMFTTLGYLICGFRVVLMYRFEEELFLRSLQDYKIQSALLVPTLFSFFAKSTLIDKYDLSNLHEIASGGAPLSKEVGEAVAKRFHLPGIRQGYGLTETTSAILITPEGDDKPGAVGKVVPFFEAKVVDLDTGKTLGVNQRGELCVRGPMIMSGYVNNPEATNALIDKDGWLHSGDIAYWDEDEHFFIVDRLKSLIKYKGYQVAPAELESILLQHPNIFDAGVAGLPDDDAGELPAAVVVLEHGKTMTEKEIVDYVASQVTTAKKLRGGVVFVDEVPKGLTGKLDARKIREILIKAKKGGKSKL
A short description of assay [15]: off-target signal loss in HeLa-CEM21 co-culture – HeLa F-luc CTL cells, cherry-picked, counter-screen for HIV-1 Env fusion inhibitor project, dose response (AID 652040).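 Note: potency for signal decrease marking cytotoxic or nonspecific inhibition.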 The assay is classed as functional, cell-based.
A short description of assay [16]: cytotoxicity in HEK-293T cells, dose response, cytotoxicity control for TCR NF-kB inhibitor project, luminescence, T-cell screen hits (AID 489026).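 Note: cells exposed to compound about 14 hours before the viability readout.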 The assay is classed as functional, cell-based.
The next assay concerns the target Prothrombin (Bos taurus, UniProt P00735). Briefly: thrombin inhibition, dose response, biochemical, fluorescence polarization, uHTS hits (AID 602369). The assay is classed as functional.
The target in assay [17] is 72 kDa type IV collagenase (Homo sapiens, UniProt P08253). Briefly: Dose Response validation of uHTS RPN11 inhibitor hits using a MMP-2 Fluorescence assay. The assay is classed as functional.
Chain of 72 kDa type IV collagenase (P08253 whole entry): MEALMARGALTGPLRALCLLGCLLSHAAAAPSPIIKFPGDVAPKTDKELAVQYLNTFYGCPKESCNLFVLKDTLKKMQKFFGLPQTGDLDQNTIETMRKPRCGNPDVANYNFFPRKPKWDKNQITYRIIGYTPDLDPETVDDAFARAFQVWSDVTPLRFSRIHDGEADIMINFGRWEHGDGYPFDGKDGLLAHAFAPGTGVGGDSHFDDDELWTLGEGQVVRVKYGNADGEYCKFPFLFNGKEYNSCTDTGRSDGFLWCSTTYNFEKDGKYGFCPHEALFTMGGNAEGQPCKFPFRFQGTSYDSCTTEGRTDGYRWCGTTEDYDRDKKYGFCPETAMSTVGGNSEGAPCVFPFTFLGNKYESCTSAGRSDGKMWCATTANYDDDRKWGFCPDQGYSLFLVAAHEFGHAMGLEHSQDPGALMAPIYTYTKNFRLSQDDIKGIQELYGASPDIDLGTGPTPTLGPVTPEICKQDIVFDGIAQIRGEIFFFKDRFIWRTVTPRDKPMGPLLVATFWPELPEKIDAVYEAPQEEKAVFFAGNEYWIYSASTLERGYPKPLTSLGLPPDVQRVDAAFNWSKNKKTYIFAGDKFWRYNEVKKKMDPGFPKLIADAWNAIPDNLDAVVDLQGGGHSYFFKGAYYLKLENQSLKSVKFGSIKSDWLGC
Assay [18] concerns the target T2, Microphthalmia-associated transcription factor (Homo sapiens, UniProt O75030).
T2 sequence (O75030 whole entry): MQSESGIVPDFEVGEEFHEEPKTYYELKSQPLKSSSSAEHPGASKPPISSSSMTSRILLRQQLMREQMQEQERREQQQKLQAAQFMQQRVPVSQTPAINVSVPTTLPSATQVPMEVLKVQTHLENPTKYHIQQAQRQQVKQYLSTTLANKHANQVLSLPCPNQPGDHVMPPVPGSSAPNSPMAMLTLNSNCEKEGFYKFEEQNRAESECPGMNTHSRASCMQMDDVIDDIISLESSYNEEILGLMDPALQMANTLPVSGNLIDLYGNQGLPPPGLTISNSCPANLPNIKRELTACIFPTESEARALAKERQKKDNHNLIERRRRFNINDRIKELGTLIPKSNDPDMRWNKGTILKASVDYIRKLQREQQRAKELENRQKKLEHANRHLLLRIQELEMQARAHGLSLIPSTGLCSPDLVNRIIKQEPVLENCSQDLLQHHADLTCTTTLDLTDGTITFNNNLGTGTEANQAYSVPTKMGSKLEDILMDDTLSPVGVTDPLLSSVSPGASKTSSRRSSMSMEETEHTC
In words: TRPM1 promoter luciferase signal decrease, dose response, MITF inhibitor project, cell-based, SK-MEL-5, cherry-picked, set 3 (AID 493073).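 Note: SK-MEL-5 melanoma cells with luciferase driven by the MITF target TRPM1 promoter.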 The assay is classed as functional.

Assay [19] in a line: inhibitors of SNCA 5'UTR-driven reporter translation, confirmation, H4 neuroglioma cells, luminescence (AID 1988). The assay is classed as functional, cell-based.
A short description of assay [20]: Luminescence Cell-Based Dose Response HTS to Identify Inhibitors of 5'UTR Stem-Loop Driven Prion Protein mRNA Translation in H4 Neuroglioblastoma Cells. [Related pubchem assays: 1827 (Project Summary), 1813 (Primary HTS)]. The assay is classed as functional.
Assay [21] in a line: inhibitors of firefly luciferase expression or activity, dose response, H4 neuroglioma cells, luminescence (AID 1990). The assay is classed as functional, cell-based.
The target of assay [22] is 26S proteasome non-ATPase regulatory subunit 14 (Homo sapiens, UniProt O00487). In words: inhibition of proteasome subunit RPN11 – biochemical, fluorescence polarization, uHTS hits, confirmation (AID 602368). The assay is classed as functional.
Chain of 26S proteasome non-ATPase regulatory subunit 14 (O00487 whole entry): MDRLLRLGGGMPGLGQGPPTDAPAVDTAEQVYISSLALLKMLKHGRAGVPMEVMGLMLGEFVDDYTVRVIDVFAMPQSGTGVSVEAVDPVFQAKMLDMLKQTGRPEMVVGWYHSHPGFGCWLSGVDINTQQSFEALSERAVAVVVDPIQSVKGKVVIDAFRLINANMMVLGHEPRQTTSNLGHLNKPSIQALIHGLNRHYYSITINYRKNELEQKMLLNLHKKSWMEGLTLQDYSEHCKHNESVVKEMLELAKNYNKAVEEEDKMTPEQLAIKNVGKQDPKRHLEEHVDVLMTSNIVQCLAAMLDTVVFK
Assay [23] can be described thus: enhancers of respiration in Yfh1-depleted yeast, dose response, Friedreich's ataxia, plus single-dose screen (AID 1465).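 Note: yeast depleted of Yfh1p frataxin homolog grown on glycerol needing respiration; WST-1 tetrazolium dye reduction as measure of cellular dehydrogenase metabolic activity.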 The assay is classed as functional.
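Throughout, for CC50: cells exposed to compound for 16 hours before readout.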

Chain of G-protein coupled receptor 55 (Q9Y2T6 whole entry): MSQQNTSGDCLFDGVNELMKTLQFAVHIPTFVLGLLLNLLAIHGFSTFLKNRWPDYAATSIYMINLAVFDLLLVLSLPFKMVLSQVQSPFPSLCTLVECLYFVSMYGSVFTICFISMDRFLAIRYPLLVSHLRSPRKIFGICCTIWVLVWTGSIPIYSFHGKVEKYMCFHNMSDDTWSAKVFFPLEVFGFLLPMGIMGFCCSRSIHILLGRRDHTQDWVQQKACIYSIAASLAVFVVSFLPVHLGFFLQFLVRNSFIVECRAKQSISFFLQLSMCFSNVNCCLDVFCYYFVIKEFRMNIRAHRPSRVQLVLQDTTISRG
Chain of Induced myeloid leukemia cell differentiation protein Mcl-1 (Q07820 whole entry): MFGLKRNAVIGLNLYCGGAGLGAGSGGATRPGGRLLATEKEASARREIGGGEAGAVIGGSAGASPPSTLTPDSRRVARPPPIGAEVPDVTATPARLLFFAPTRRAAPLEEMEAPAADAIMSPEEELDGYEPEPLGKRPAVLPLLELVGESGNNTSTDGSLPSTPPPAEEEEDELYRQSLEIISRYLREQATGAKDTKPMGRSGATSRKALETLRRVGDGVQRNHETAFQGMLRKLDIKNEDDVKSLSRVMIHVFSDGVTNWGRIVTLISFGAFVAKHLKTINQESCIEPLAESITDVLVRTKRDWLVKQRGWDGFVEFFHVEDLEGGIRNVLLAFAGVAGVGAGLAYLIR

As for `COc1ccc(C(c2c(O)ccc3ccccc23)N2CCOCC2)c(OC)c1` (configuration not stated), the half-maximal effective concentration (EC50) in [1] is 12.5 µM (active); in [2], 1.82 µM (active); in [3] it was > 180 µM (inactive); in [4], 3.89 µM (active); in [6], 11.6 µM (active); in assay [7], 4.07 µM (active). Further, the EC50 in assay [8] was > 160 µM (inactive). For the same compound, the 50% cytotoxic concentration (CC50) in the assay with HeLa is reported as 44.3 µM (not active). The IC50 in assay [5] is 1.62 µM (active).
Consider `O=C(/C=C/c1cccnc1)/C=C/c1cccnc1`, for which the EC50 in [9] was > 49.7 µM (not active); on Wee1-like protein kinase, > 1.84 µM (active). Also, the IC50 in [10] is 3.26 µM (active).
Consider `Cc1ccc(C(=O)Nc2cccc(C(=O)O)c2)cc1`, for which the half-maximal activity concentration (AC50) in [11] was 1.38 µM (active); in assay [12], 7.9 µM (active); in [13], 4.84 µM (active); in assay [15], 2.07 µM (active). Also, the EC50 in the assay on HT-1080 is > 50 µM (not active); in assay [14], 96.3 µM (active). For the same compound, in [16], the IC50 was > 80 µM (inactive).
Consider `CCN(CCO)c1ccc(N=Nc2cc(C)[nH]n2)cc1`, for which the IC50 was 61.2 µM (active) on Prothrombin, > 100 µM (inactive) in assay [17] and 53 µM (active) in assay [22]. For the same compound, in [18], the concentration at half-maximal activity (AC50) was 3.6 µM (active). The concentration for a half-maximal effect (EC50) is 4.94 µM (active) in assay [19], 4.08 µM (active) in assay [20], 5.43 µM (active) in assay [21] and > 100 µM (active) in [23].

A word on the EC50: it is the concentration at which the effect is half-maximal. The term CC50 denotes the concentration giving 50% cytotoxicity. The IC50 is the concentration that gives 50% inhibition. By AC50 is commonly meant the midpoint of the concentration-response curve, whichever way the signal moves.
